Read-outs that look alike come from different tables or passages of the source. Where a SMILES comes first, the peptide text is derived from it. Bridges are numbered along the chain shown (N, C = ends). [ ]: non-standard residue; d: D form. NMePhe(3-Cl) = CN[C@@H](Cc1cccc(Cl)c1)C(=O)O; NMeW = CN[C@@H](Cc1c[nH]c2ccccc12)C(=O)O; NMeY = CN[C@@H](Cc1ccc(O)cc1)C(=O)O; 4Pal = N[C@@H](Cc1ccncc1)C(=O)O
Molecular target: transferrin receptor (hTfR) (Homo sapiens, UniProt P02786)
Assay: Intermolecular interaction evaluation test between transferrin receptor (hTfR) and peptide by surface plasmon resonance (SPR)
Format: binding
In short: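 hTfR captured on Ni-NTA chip then amine-coupled; peptides run single-cycle kinetics at 5–100 nM in 10 mM HEPES pH 8.0, 150 mM NaCl, 0.05% Tween 20, 0.1% BSA, 1.0% DMSO. KD from least-squares curve fitting of sensorgrams.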

[1] = surface plasmon resonance, hTfR, read-out: KD value for hTfR by SPR (class symbol)
[2] = surface plasmon resonance, peptide vs hTfR, read-out: KD value, hTfR binding by SPR (class symbol)

Chain of transferrin receptor (hTfR) (P02786 whole entry): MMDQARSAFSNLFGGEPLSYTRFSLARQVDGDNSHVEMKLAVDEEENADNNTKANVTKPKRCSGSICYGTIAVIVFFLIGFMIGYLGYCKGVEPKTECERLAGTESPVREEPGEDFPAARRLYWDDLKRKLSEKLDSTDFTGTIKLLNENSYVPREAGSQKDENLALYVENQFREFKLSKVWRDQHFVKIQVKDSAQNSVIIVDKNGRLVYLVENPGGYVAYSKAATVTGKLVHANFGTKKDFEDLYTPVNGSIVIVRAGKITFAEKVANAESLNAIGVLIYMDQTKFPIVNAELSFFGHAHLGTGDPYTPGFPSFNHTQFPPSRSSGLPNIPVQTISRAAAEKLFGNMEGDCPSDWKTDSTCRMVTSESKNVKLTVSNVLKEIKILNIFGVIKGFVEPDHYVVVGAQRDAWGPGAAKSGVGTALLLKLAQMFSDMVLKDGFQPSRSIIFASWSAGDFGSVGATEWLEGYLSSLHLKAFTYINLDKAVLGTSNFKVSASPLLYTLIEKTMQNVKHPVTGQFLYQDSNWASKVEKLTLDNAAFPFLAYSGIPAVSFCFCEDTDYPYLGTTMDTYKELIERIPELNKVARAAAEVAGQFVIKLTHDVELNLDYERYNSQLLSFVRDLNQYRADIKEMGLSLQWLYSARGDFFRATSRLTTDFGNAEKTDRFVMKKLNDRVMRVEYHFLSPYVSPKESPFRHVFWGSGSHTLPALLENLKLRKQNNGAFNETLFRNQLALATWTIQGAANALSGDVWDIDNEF

| Compound | Kd [1] [nM] | Kd [2] [nM] | other results |
| --- | --- | --- | --- |
| CC[C@H](C)[C@@H]1NC(=O)[C@H](Cc2ccc(OC)cc2)NC(=O)[C@H](Cc2ccc(O)cc2)NC(=O)[C@H](CC(N)=O)NC(=O)[C@H](Cc2c[nH]c3ccccc23)N(C)C(=O)[C@H](C(C)C)NC(=O)[C@H](Cc2cccc(Cl)c2)N(C)C(=O)[C@H](C(C)C)NC(=O)[C@H](C)NC(=O)CSC[C@@H](C(N)=O)NC(=O)[C@H](Cc2ccc(O)cc2)N(C)C(=O)[C@H](Cc2ccccc2)NC(=O)[C@@H](CCCNC(=N)N)NC(=O)[C@H](CCCNC(=N)N)N(C)C(=O)[C@H]([C@@H](C)CC)NC1=O [compound 382] | 1 to 100 |  |  |
| CC[C@H](C)[C@@H]1NC(=O)[C@H](Cc2ccc(OC)cc2)NC(=O)[C@H](Cc2ccc(O)cc2)NC(=O)[C@H](CC(N)=O)NC(=O)[C@H](Cc2c[nH]c3ccccc23)N(C)C(=O)[C@H](C(C)C)NC(=O)[C@H](Cc2cccc(Cl)c2)N(C)C(=O)[C@H](C(C)C)NC(=O)[C@H](C)NC(=O)CSC[C@@H](C(N)=O)NC(=O)[C@H](Cc2ccc(O)cc2)N(C)C(=O)[C@H](Cc2ccc(Cl)cc2)NC(=O)[C@@H](CCCNC(=N)N)NC(=O)[C@H](CCCNC(=N)N)NC(=O)[C@H]([C@@H](C)CC)NC1=O [compound 392] | 1 to 100 |  |  |
| CC[C@H](C)[C@@H]1NC(=O)[C@H](Cc2ccc(OC)cc2)NC(=O)[C@H](Cc2ccc(O)cc2)NC(=O)[C@H](CC(N)=O)NC(=O)[C@H](Cc2c[nH]c3ccccc23)N(C)C(=O)[C@H](C(C)C)NC(=O)[C@H](Cc2cccc(Cl)c2)N(C)C(=O)[C@H](C(C)C)NC(=O)[C@H](C)NC(=O)CSC[C@@H](C(=O)NCCOCCOCCOCCOCCC(N)=O)NC(=O)[C@H](Cc2ccc(O)cc2)N(C)C(=O)[C@H](Cc2ccccc2)NC(=O)[C@@H](CCCNC(=N)N)NC(=O)[C@H](CCCNC(=N)N)NC(=O)[C@H]([C@@H](C)O)NC1=O [compound 331] |  | 1 to 100 |  |
| CC[C@H](C)[C@@H]1NC(=O)[C@H](Cc2ccc(O)cc2)NC(=O)[C@H](Cc2ccc(O)cc2)NC(=O)[C@H](CC(N)=O)NC(=O)[C@H](Cc2c[nH]c3ccccc23)N(C)C(=O)[C@H](C(C)C)NC(=O)[C@H](Cc2ccccc2)N(C)C(=O)[C@H](C(C)C)NC(=O)[C@H](C)NC(=O)CSC[C@@H](C(N)=O)NC(=O)[C@H](Cc2ccc(O)cc2)N(C)C(=O)[C@H](Cc2ccc(O)cc2)NC(=O)[C@H](CCCNC(=N)N)NC(=O)[C@H](CCCCN)NC(=O)[C@H]([C@@H](C)CC)NC1=O [compound 300] |  | 1 to 100 |  |
| CC[C@H](C)[C@@H]1NC(=O)[C@H](Cc2ccc(OC)cc2)NC(=O)[C@H](Cc2ccc(O)cc2)NC(=O)[C@H](CC(N)=O)NC(=O)[C@H](Cc2c[nH]c3ccccc23)N(C)C(=O)[C@H](C(C)C)NC(=O)[C@H](Cc2cccc(Cl)c2)N(C)C(=O)[C@H](CCC(=O)O)NC(=O)[C@H](C)NC(=O)CSC[C@@H](C(N)=O)NC(=O)[C@H](CO)NC(=O)[C@H]([C@@H](C)CC)NC1=O [compound 203] ({CH2CO}-AE[NMePhe(3-Cl)]V[NMeW]NYY(Me)IISC-NH2; thioether N-12) |  |  | Kd (SPR, peptides, linker-added peptides and FITC conjugates, Patent ID 203-230, read-out: KD): 1 to 100 nM |
| CC[C@H](C)[C@@H]1NC(=O)[C@H](Cc2ccncc2)NC(=O)[C@H](Cc2ccc(O)cc2)NC(=O)[C@H](CC(N)=O)NC(=O)[C@H](Cc2c[nH]c3ccccc23)N(C)C(=O)[C@H](C(C)C)NC(=O)[C@H](Cc2cccc(Cl)c2)N(C)C(=O)[C@H](C(C)C)NC(=O)[C@H](C)NC(=O)CSC[C@@H](C(N)=O)NC(=O)[C@H](Cc2ccc(O)cc2)N(C)C(=O)[C@H](Cc2ccccc2)NC(=O)[C@@H](CCCNC(=N)N)NC(=O)[C@H](CCCNC(=N)N)NC(=O)[C@H]([C@@H](C)CC)NC1=O [compound 455] ({CH2CO}-AV[NMePhe(3-Cl)]V[NMeW]NY[4Pal]IIR[dR]F[NMeY]C-NH2; thioether N-15) |  |  | Kd (SPR, hTfR, class symbols A-D, read-out: KD): 1 to 100 nM |
